Source: patent US5631401A, “Inhibitors of protein farnesyltransferase and squalene synthase” (Abbott Laboratories, priority 1995, dated 1997)

What was measured:
[1] = molecular target: T1, Rat brain protein farnesyltransferase (Rattus norvegicus, UniProt Q02293+Q04631); experiment: In vitro inhibition of protein farnesyltransferase (biotin-lamin substrate, scintillation proximity assay); type: biochemical; conditions: for inhibition at 10 µM: compared to uninhibited control; for inhibition at 1 µM: 1 μM (footnote *), read-out: % Inhibition at 1 μM (protein farnesyltransferase, values marked *)
T1 construct: The enzyme was purified according to Reiss, Y., et al., Cell, 62: 81-88 (1990), utilizing steps one through three; from tissue; host or cells: rat brain
How it was run: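 Protein farnesyltransferase isolated from rat brain was purified following steps one through three of the Reiss et al. method, giving a specific activity of about 10 nmol substrate farnesylated/mg enzyme/hour. Activity was measured with a commercial Amersham scintillation proximity assay kit, using biotin-lamin as the acceptor substrate and radioactive farnesyl diphosphate as the donor.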

[2] = molecular target: T2, Rat liver microsomal squalene synthase (Rattus norvegicus, UniProt Q02769); experiment: In vitro inhibition of squalene synthase (rat liver microsomes, 3H-farnesyl diphosphate); type: biochemical; conditions: 1 μM; compared to controls with no test compound
T2 construct: Rat liver microsomes, the source of enzyme, were prepared; from tissue; host or cells: rat liver microsomes
T2 sequence (Q02769 1-416): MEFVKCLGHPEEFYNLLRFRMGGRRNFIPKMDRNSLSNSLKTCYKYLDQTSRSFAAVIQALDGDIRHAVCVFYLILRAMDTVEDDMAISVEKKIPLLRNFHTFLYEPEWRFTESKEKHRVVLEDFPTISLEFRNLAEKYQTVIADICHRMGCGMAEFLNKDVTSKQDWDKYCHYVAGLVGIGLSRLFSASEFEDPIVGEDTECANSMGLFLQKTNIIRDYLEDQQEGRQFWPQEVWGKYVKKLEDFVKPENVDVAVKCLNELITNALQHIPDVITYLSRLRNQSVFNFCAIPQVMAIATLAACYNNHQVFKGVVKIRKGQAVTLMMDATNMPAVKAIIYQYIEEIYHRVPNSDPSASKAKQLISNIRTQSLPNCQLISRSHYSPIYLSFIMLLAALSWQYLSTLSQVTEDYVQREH
Description: In vitro inhibition of squalene synthase may be measured by the following procedure.
Rat liver microsomal squalene synthase activity was measured using radioactive farnesyl diphosphate as a substrate and quantitating squalene synthesis by counting the radioactive squalene formed.
Rat liver microsomes, the source of enzyme, were prepared according to the method of Gillies, P. J., et al., Exp. Molec. Pathol. 44: 329-339 (1986), a modification of the procedure of Erickson, S. K., and Cooper, A. D., Metabolism, 29: 991-996 (1980). Approximately 30 μg of microsomal protein was incubated for 10 minutes at 37° C. with 11 μM of ^3 H-farnesyl diphosphate, 49 mCi/mmol, and test compound in the presence of squalene (2 μL), Mg^++, KF, reduced B-nicotinamide adenine dinucleotide phosphate, dithiothreitol, and K2 PO4, pH 7.35, in a total volume of 200 μL. Oxygen was excluded from the closed incubation tube by degassing with nitrogen. The reaction was terminated by the addition of ethanolic KOH and after degassing with N2, the microsomal membranes were solubilized by heating at 60° C. for 30 minutes. The squalene was extracted into hexane, and the squalene was separated from all other radioactive molecules by passage over an activated alumina column. The solution was collected in scintillation vials, evaporated to dryness, liquid scintillation fluid was added, and the radioactivity was determined in a liquid scintillation counter. […]

Row | SMILES | inhibition at 10 µM [1] | inhibition at 1 µM [2] | inhibition at 1 µM [1]
1 | CCCN(Cc1ccc(Oc2ccccc2)c(C)c1)C(=O)C1C(C(=O)O)C(C(=O)N(CCC)Cc2ccc(Oc3ccccc3)c(C)c2)C1C(=O)O (stereo not drawn) [Example 59, (1α,2β,3β,4α)-1,3-Di{N-propyl-N-[(3-methyl-4-phenoxy)benzyl]aminocarbonyl}cyclobutane-2,4-dicarboxylic acid] | 54% | 46% | 
2 | CCCN(Cc1ccc(Nc2ccccc2)cc1)C(=O)[C@H]1[C@H](C(=O)O)[C@H](C(=O)N(CCC)Cc2ccc(Nc3ccccc3)cc2)[C@H]1C(=O)O [Example 63] | 68% | 44% | 
3 | CCCN(Cc1ccc(Sc2ccccc2)cc1)C(=O)C1C(C(=O)O)C(C(=O)N(CCC)Cc2ccc(Sc3ccccc3)cc2)C1C(=O)O (stereo not drawn) [Example 64] | 64% | 33% | 
4 | CCCN(CCc1ccc(Oc2ccccc2)cc1)C(=O)C1C(C(=O)O)C(C(=O)N(CCC)CCc2ccc(Oc3ccccc3)cc2)C1C(=O)O (stereo not drawn) [Example 67, (1α,2β,3β,4α)-1,3-Di[N-propyl-N-(2-(4-phenoxyphenyl)ethyl)aminocarbonyl]cyclobutane-2,4-dicarboxylic acid] |  | 47% | 61%
5 | COCCN(Cc1ccc(Oc2ccccc2)cc1)C(=O)C1C(C(=O)O)C(C(=O)N(CCOC)Cc2ccc(Oc3ccccc3)cc2)C1C(=O)O (stereo not drawn) [Example 68, (1α,2β,3β,4α)-1,3-Di[N-(2-methoxyethyl)-N-(4-phenoxybenzyl)aminocarbonyl]cyclobutane-2,4-dicarboxylic acid] | 49% | 52% | 
6 | CSCCN(Cc1ccc(Oc2ccccc2)cc1)C(=O)C1C(C(=O)O)C(C(=O)N(CCSC)Cc2ccc(Oc3ccccc3)cc2)C1C(=O)O (stereo not drawn) [Example 69, (1α,2β,3β,4α)-1,3-Di[N-(2-methylthioethyl)-N-(4-phenoxybenzyl)aminocarbonyl]cyclobutane-2,4-dicarboxylic acid] |  | 23% | 31%
7 | CCSCCN(Cc1ccc(Oc2ccccc2)cc1)C(=O)C1C(C(=O)O)C(C(=O)N(CCSCC)Cc2ccc(Oc3ccccc3)cc2)C1C(=O)O (stereo not drawn) [Example 70, (1α,2β,3β,4α)-1,3-Di[N-(2-ethylthioethyl)-N-(4-phenoxybenzyl)aminocarbonyl]cyclobutane-2,4-dicarboxylic acid] | 77% | 76% | 
8 | O=C(O)C1C(C(=O)N(CCSCc2ccccc2)Cc2ccc(Oc3ccccc3)cc2)C(C(=O)O)C1C(=O)N(CCSCc1ccccc1)Cc1ccc(Oc2ccccc2)cc1 (stereo not drawn) [Example 71, (1α,2β,3β,4α)-1,3-Di[N-(2-benzylthioethyl)-N-(4-phenoxybenzyl)aminocarbonyl]cyclobutane-2,4-dicarboxylic acid] |  | 25% | 32%
9 | O=C(O)C1C(C(=O)N(Cc2ccc(Oc3ccccc3)cc2)Cc2ccco2)C(C(=O)O)C1C(=O)N(Cc1ccc(Oc2ccccc2)cc1)Cc1ccco1 (stereo not drawn) [Example 72, (1α,2β,3β,4α)-1,3-Di[N-(furan-2-ylmethyl)-N-(4-phenoxybenzyl)aminocarbonyl]cyclobutane-2,4-dicarboxylic acid] |  | 32% | 82%
10 | O=C(O)[C@H]1[C@H](C(=O)N(Cc2ccc(Oc3ccccc3)cc2)Cc2cccs2)[C@H](C(=O)O)[C@H]1C(=O)N(Cc1ccc(Oc2ccccc2)cc1)Cc1cccs1 [Example 73, (1α,2β,3β,4α)-1,3-Di[N-(thien-2-ylmethyl)-N-(4-phenoxybenzyl)aminocarbonyl]cyclobutane-2,4-dicarboxylic acid] |  | 24% | 92%
11 | COc1cccc(CCN(Cc2ccc(Oc3ccccc3)cc2)C(=O)[C@H]2[C@H](C(=O)O)[C@H](C(=O)N(CCc3cccc(OC)c3)Cc3ccc(Oc4ccccc4)cc3)[C@H]2C(=O)O)c1 [Example 76, (1α,2β,3β,4α)-1,3-Di[N-(4-phenoxybenzyl)-N-(3-methoxyphenethyl)aminocarbonyl]cyclobutane-2,4-dicarboxylic acid] | 66% | 23% | 
12 | COc1ccc(CCN(Cc2ccc(Oc3ccccc3)cc2)C(=O)[C@H]2[C@H](C(=O)O)[C@H](C(=O)N(CCc3ccc(OC)c(OC)c3)Cc3ccc(Oc4ccccc4)cc3)[C@H]2C(=O)O)cc1OC [Example 77, (1α,2β,3β,4α)-1,3-Di [N-(4-phenoxybenzyl)-N-(3,4-dimethoxyphenethyl)aminocarbonyl]cyclobutane-2,4-dicarboxylic acid] | 48% | 23% | 
13 | O=C(O)[C@H]1[C@H](C(=O)N(CCc2ccccc2)Cc2ccc(Oc3ccccc3)cc2)[C@H](C(=O)O)[C@H]1C(=O)N(CCc1ccccc1)Cc1ccc(Oc2ccccc2)cc1 [Example 78, (1α,2β,3β,4α)-1,3-Di [N-(4-phenoxybenzyl)-N-phenethylaminocarbonyl]cyclobutane-2,4-dicarboxylicacid] | 83% | 32% | 
14 | O=C(O)[C@H]1[C@H](C(=O)N(CCCc2ccccc2)Cc2ccc(Oc3ccccc3)cc2)[C@H](C(=O)O)[C@H]1C(=O)N(CCCc1ccccc1)Cc1ccc(Oc2ccccc2)cc1 [Example 79, (1α,2β,3β,4α)-1,3-Di [N-(4-phenoxybenzyl)-N-(3-phenyl-1-propyl)aminocarbonyl]cyclobutane-2,4-dicarboxylic acid] | 43% | 54% | 
15 | O=C(O)[C@H]1[C@H](C(=O)N(CCCCc2ccccc2)Cc2ccc(Oc3ccccc3)cc2)[C@H](C(=O)O)[C@H]1C(=O)N(CCCCc1ccccc1)Cc1ccc(Oc2ccccc2)cc1 [Example 80, (1α,2β,3β,4α)-1,3-Di [N-(4-phenoxybenzyl)-N-(4-phenyl-1-butyl)aminocarbonyl]cyclobutane-2,4-dicarboxylic acid] | 51% | 42% | 
16 | C[C@@H](c1ccccc1)N(Cc1ccc(Oc2ccccc2)cc1)C(=O)[C@H]1[C@H](C(=O)O)[C@H](C(=O)N(Cc2ccc(Oc3ccccc3)cc2)[C@@H](C)c2ccccc2)[C@H]1C(=O)O [Example 87, (1α,2β,3β,4α)-1,3-Di[N-(S)-α-Methylbenzyl-N-(4-phenoxybenzyl)aminocarbonyl]cyclobutane-2,4-dicarboxylic acid] | 86% | 76% | 
17 | COc1ccc(CN(Cc2ccc(Oc3ccccc3)cc2)C(=O)[C@H]2[C@H](C(=O)O)[C@H](C(=O)N(Cc3ccc(OC)cc3)Cc3ccc(Oc4ccccc4)cc3)[C@H]2C(=O)O)cc1 [Example 89] | 50% | 47% | 
18 | O=C(O)[C@H]1[C@H](C(=O)N(Cc2ccc(Oc3ccccc3)cc2)CC2CCCCC2)[C@H](C(=O)O)[C@H]1C(=O)N(Cc1ccc(Oc2ccccc2)cc1)CC1CCCCC1 [Example 91] | 36% | 41% | 
19 | O=C(O)[C@H]1[C@H](C(=O)N(Cc2ccc(Oc3ccccc3)cc2)CC2CC2)[C@H](C(=O)O)[C@H]1C(=O)N(Cc1ccc(Oc2ccccc2)cc1)CC1CC1 [Example 93, (1α,2β,3β,4α)-1,3-Di[N-Cyclopropylmethyl-N-(4-phenoxybenzyl)aminocarbonyl]cyclobutane-2,4-dicarboxylic acid] | 74% | 52% | 
20 | O=C(O)[C@H]1[C@H](C(=O)N(Cc2ccc(F)cc2)Cc2ccc(Oc3ccccc3)cc2)[C@H](C(=O)O)[C@H]1C(=O)N(Cc1ccc(F)cc1)Cc1ccc(Oc2ccccc2)cc1 [Example 94, (1α,2β,3β,4α)-1,3-Di[N-(4-fluorobenzyl)-N-(4-phenoxybenzyl)aminocarbonyl]cyclobutane-2,4-dicarboxylic acid] | 99% | 20% | 
21 | O=C(O)[C@H]1[C@H](C(=O)N(Cc2ccc(Oc3ccccc3)cc2)C2CCCC2)[C@H](C(=O)O)[C@H]1C(=O)N(Cc1ccc(Oc2ccccc2)cc1)C1CCCC1 [Example 97, (1α,2β,3β,4α)-1,3-Di[N-cyclopentyl-N-(4-phenoxybenzyl)aminocarbonyl]cyclobutane-2,4-dicarboxylic acid] | 32% | 49% | 
